# pIC50: −log10 of the molar value. Like-named read-outs stand apart in the source and are kept apart here.
# Assays:
# [1] = molecular target: T1, FL-SMARCA2 (full-length human SMARCA2 isoform 1) (Homo sapiens, UniProt P51531); experiment: SMARCA2 ATPase activity assay (ADP-Glo, chicken mononucleosome substrate); assay type: biochemical; settings: ATP 250 uM
# T1 construct: FLAG tag (YKDDDDK) (C); made in house; host or cells: Sf21 insect cells (baculovirus, pFastBacI)
# FL-SMARCA4 = FL-SMARCA4 (Homo sapiens, UniProt P51532); experiment: SMARCA4 ATPase activity assay (ADP-Glo, chicken mononucleosome substrate)
# FL-SMARCA4, sequence (P51532 whole entry): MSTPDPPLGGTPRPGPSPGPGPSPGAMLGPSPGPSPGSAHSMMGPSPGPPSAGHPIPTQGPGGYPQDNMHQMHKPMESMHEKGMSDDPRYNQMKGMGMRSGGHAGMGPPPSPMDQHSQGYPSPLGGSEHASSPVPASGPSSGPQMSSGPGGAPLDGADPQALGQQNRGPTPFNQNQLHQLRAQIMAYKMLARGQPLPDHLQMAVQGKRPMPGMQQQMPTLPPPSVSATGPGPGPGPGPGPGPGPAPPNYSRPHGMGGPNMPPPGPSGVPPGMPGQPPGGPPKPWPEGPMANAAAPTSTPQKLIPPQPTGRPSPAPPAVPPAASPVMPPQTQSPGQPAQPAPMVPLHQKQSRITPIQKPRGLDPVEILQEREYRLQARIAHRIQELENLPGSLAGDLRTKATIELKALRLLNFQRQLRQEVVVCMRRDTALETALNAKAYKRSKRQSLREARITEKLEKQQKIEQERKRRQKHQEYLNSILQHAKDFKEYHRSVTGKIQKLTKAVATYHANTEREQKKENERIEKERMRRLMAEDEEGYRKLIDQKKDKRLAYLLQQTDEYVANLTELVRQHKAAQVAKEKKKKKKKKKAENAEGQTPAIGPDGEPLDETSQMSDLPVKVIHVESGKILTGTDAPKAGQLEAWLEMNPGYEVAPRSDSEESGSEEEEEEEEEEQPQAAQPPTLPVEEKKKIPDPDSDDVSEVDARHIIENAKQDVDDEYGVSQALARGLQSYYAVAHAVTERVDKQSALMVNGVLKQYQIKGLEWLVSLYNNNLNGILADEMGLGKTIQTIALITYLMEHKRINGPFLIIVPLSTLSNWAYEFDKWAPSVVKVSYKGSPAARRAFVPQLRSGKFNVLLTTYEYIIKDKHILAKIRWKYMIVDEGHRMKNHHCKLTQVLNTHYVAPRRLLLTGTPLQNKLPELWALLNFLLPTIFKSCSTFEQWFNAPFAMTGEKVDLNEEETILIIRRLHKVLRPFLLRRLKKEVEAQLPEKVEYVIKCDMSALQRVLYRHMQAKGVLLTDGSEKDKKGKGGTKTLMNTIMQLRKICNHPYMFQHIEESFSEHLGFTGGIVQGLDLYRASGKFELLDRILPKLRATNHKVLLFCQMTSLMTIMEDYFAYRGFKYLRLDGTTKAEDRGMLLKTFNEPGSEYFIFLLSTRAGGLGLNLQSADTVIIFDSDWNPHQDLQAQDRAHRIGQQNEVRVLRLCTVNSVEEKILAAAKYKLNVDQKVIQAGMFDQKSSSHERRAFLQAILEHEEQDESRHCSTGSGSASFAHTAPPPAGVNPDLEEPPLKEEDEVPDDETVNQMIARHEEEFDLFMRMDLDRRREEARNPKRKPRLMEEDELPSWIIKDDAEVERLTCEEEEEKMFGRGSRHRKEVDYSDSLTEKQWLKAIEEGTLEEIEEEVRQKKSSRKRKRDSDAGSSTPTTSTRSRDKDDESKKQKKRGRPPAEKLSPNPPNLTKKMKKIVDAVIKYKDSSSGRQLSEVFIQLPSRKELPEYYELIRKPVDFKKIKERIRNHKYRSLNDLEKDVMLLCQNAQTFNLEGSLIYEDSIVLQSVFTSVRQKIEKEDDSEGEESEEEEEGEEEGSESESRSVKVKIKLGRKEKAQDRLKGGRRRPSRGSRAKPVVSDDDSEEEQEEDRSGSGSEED
# [2] = Table 3d.1, ATPase assay, enzyme 5 nM, chicken mononucleosome 10 nM, 30 min preincubation, read-out: FL-SMARCA2 IC>50
# [3] = Table 3a.1, SMARCA2 5 nM, mononucleosome 10 nM
# [4] = FL-SMARCA4 IC50, Table 3a.2, SMARCA4 5 nM, ATP 250 uM, mononucleosome 10 nM
# [5] = Table 3.1, ATPase assay, enzyme 5 nM, chicken mononucleosome 10 nM, 30 min preincubation
# [6] = FL-SMARCA4 IC50, Table 3.2, ATPase assay, enzyme 5 nM, ATP 250 uM, chicken mononucleosome 10 nM, 30 min preincubation
# [7] = Table 3c.1, ATPase assay, enzyme 5 nM, chicken mononucleosome 10 nM, 30 min preincubation
# [8] = FL-SMARCA4 IC>50, Table 3c.2, ATPase assay, enzyme 5 nM, ATP 250 uM, chicken mononucleosome 10 nM, 30 min preincubation
# T1 sequence (P51531 with tags, fused parts or gaps): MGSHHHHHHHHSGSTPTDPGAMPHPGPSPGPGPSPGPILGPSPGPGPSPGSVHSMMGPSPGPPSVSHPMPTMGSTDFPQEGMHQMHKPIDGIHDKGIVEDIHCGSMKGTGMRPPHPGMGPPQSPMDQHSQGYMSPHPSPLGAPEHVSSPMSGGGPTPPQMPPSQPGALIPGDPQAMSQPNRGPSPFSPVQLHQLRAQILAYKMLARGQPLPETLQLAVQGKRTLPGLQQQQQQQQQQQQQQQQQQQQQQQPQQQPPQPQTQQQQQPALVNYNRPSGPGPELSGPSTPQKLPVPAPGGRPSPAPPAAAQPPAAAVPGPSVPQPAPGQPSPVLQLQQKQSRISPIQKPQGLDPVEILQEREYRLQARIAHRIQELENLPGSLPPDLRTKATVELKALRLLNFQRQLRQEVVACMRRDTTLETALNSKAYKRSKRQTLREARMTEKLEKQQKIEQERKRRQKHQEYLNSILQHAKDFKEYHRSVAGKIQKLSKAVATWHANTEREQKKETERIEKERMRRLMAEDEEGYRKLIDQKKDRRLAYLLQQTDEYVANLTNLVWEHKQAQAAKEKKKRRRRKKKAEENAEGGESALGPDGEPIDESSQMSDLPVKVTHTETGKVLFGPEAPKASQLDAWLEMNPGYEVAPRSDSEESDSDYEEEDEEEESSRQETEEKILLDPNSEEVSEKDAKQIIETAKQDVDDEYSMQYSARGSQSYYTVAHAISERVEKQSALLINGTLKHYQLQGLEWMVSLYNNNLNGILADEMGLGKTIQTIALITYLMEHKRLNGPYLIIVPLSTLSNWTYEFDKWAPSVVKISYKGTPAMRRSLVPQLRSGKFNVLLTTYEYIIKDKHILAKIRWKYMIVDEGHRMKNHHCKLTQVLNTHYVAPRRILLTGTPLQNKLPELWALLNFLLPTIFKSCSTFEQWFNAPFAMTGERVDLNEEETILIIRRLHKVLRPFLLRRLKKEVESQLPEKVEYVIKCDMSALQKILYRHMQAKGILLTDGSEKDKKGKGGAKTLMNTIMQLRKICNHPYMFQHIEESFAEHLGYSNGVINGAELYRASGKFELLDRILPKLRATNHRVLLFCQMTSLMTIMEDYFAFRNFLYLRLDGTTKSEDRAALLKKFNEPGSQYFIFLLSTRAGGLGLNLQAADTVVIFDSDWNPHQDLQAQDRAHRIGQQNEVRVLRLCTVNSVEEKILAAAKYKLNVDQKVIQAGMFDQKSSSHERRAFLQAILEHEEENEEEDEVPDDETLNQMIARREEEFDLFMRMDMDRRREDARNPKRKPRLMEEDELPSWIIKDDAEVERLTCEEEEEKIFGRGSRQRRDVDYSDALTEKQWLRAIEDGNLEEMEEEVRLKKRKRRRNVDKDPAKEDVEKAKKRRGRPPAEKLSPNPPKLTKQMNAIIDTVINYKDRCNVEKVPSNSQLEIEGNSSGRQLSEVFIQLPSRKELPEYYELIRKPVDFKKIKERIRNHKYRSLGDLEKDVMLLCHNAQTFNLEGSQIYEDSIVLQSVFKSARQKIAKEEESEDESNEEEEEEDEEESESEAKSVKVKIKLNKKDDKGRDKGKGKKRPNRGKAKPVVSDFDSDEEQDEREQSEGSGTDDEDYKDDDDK
Structure (SMILES),"pIC50 [1, 2]",pIC50 (FL-SMARCA4; FL-SMARCA4 IC50),"pIC50 [1, 3]",pIC50 (FL-SMARCA4; [4]),also measured
Cc1nc(-c2ccc(C(=O)Nc3cc(F)c(=O)n(CC(F)F)c3)s2)cs1 [Compound 33d],< 4.30,< 4.30,,,
CCn1cc(NC(=O)c2cc3c(n2C)CCC3)ccc1=O [Compound 34a],,,< 4.30,< 4.30,
O=C(Nc1cc(F)c(=O)n(CC(F)F)c1)c1ccc(-c2ccccn2)s1 [Compound 34d],< 4.30,< 4.30,,,
CCn1cc(NC(=O)c2coc(Br)n2)ccc1=O [Compound 35],,,,,"pIC50 [1, 5]: < 4.30; pIC50 (FL-SMARCA4; [6]): < 4.30"
CCn1cc(NC(=O)c2ccc(Cl)c(C)n2)ccc1=O [Compound 35a],,,< 4.30,< 4.30,
NC(=O)c1cc(C(=O)Nc2cc(F)c(=O)n(CC(F)F)c2)sc1C(F)(F)F [Compound 35d],< 4.30,< 4.30,,,
CCn1cc(NC(=O)c2nc(Br)sc2C)ccc1=O [Compound 36],,,,,"pIC50 [1, 5]: < 4.30; pIC50 (FL-SMARCA4; [6]): < 4.30"
CCn1cc(NC(=O)c2cc3ccccc3s2)ccc1=O [Compound 36a],,,< 4.30,< 4.30,
O=C(Nc1cc(F)c(=O)n(CC(F)F)c1)c1cc(C2COC2)cs1 [Compound 36c],,,,,"pIC50 [1, 7]: < 4.30; pIC50 (FL-SMARCA4; [8]): < 4.30"
CN(C)C(=O)c1cc(C(=O)Nc2cc(F)c(=O)n(CC(F)F)c2)sc1C(F)(F)F [Compound 36d],4.44,< 4.30,,,
Cn1c(C(=O)Nc2ccc(=O)[nH]c2)cc(Cl)c1Cl [Compound 37],,,,,"pIC50 [1, 5]: < 4.30; pIC50 (FL-SMARCA4; [6]): < 4.30"
CCn1cc(NC(=O)c2ccc3c(n2)OCO3)ccc1=O [Compound 37a],,,< 4.30,< 4.30,
O=C(Nc1cc(F)c(=O)n(CC(F)F)c1)c1coc(Cl)n1 [Compound 37d],< 4.30,< 4.30,,,
CCn1cc(NC(=O)c2ccc3cn[nH]c3n2)ccc1=O [Compound 38a],,,< 4.30,< 4.30,
Cn1cncc1-c1cc(NC(=O)c2sc(C(F)(F)F)cc2Cl)cn(CC(F)F)c1=O [Compound 38c],,,,,"pIC50 [1, 7]: < 4.30; pIC50 (FL-SMARCA4; [8]): < 4.30"
O=C(Nc1cc(F)c(=O)n(CC(F)F)c1)c1n[nH]c(Cl)n1 [Compound 38d],< 4.30,< 4.30,,,
CCn1cc(NC(=O)n2cc3ccccc3n2)ccc1=O [Compound 39a],,,< 4.30,< 4.30,
O=C(Nc1cc(F)c(=O)n(CC(F)F)c1)c1nc(Cl)c(Cl)[nH]1 [Compound 39d],< 4.30,< 4.30,,,
CCn1cc(NC(=O)c2ccc(Cl)s2)ccc1=O [Compound 40],,,,,"pIC50 [1, 5]: 5.58; pIC50 (FL-SMARCA4; [6]): 4.94"
CCn1cc(NC(=O)c2sc3ccccc3c2C)ccc1=O [Compound 40a],,,< 4.30,< 4.30,

Structure (SMILES),"pIC50 [1, 2]",pIC50 (FL-SMARCA4; FL-SMARCA4 IC50),"pIC50 [1, 3]",pIC50 (FL-SMARCA4; [4]),also measured
COc1cc(Cl)c(Cl)cc1C(=O)Nc1cc(F)c(=O)n(CC(F)F)c1 [Compound 40d],< 4.30,< 4.30,,,
O=C(Nc1ccc(=O)n(CC(F)(F)F)c1)c1nc2cc(F)c(Cl)cc2[nH]1 [Compound 41a],,,< 4.30,< 4.30,
COc1ncc(F)cc1C(=O)Nc1cc(F)c(=O)n(CC(F)F)c1 [Compound 41d],< 4.30,< 4.30,,,
CCn1cc(NC(=O)c2nc3cc(Cl)c(Cl)cc3[nH]2)ccc1=O [Compound 42a],,,4.88,< 4.30,
COc1ncc(C(=O)Nc2cc(F)c(=O)n(CC(F)F)c2)cc1F [Compound 42d],4.56,< 4.30,,,
O=C(Nc1ccc(=O)n(CC(F)(F)F)c1)c1nc2cc(Cl)c(Cl)cc2[nH]1 [Compound 43a],,,< 4.30,< 4.30,
N#Cc1nc(C(=O)Nc2cc(F)c(=O)n(CC(F)F)c2)co1 [Compound 43d],< 4.30,< 4.30,,,
CCn1cc(NC(=O)c2cc(Cl)cs2)ccc1=O [Compound 44],,,,,"pIC50 [1, 5]: < 4.30; pIC50 (FL-SMARCA4; [6]): < 4.30"
O=C(Nc1ccc(=O)n(CC(F)(F)F)c1)c1nc2cc(F)c(Cl)cc2s1 [Compound 44a],,,4.37,< 4.30,
COc1ccc(C#Cc2cc(C(=O)Nc3cc(F)c(=O)n(CC(F)F)c3)sc2Cl)cc1 [Compound 44c],,,,,"pIC50 [1, 7]: 5.98; pIC50 (FL-SMARCA4; [8]): 5.66"
O=C(Nc1cc(F)c(=O)n(CC(F)F)c1)c1cc(Cl)on1 [Compound 44d],4.53,< 4.30,,,
CCn1cc(NC(=O)c2cn3cc(Cl)c(F)cc3n2)ccc1=O [Compound 45a],,,< 4.30,< 4.30,
CN(C)CC#Cc1cc(NC(=O)c2cc(F)c(Cl)s2)cn(CC(F)F)c1=O [Compound 45d],< 4.30,< 4.30,,,
CCn1cc(NC(=O)c2nc3cc(F)c(Cl)cc3s2)ccc1=O [Compound 46a],,,4.37,4.39,
O=C(Nc1ccc(=O)n(CC(F)F)c1)c1sc(C(F)(F)F)cc1Cl [Compound 46c],,,,,"pIC50 [1, 7]: < 4.30; pIC50 (FL-SMARCA4; [8]): < 4.30"
COc1c(C(=O)Nc2cc(F)c(=O)n(CC(F)F)c2)sc(Cl)c1Cl [Compound 46d],< 4.30,< 4.30,,,
CN1CCC(C(=O)Nc2cc(F)c(=O)n(CCF)c2)CC1=O (centres unmarked) [Compound 47a],,,< 4.30,< 4.30,
O=C(Nc1cc(F)c(=O)n(CC(F)F)c1)c1cc(C(O)C(F)(F)F)c(Cl)s1 (centres unmarked) [Compound 47d],4.60,< 4.30,,,
CCn1cc(NC(=O)c2ccc(I)n2C)ccc1=O [Compound 48],,,,,"pIC50 [1, 5]: 4.85; pIC50 (FL-SMARCA4; [6]): < 4.30"
CN1C(=O)CCCC1C(=O)Nc1cc(F)c(=O)n(CCF)c1 (centres unmarked) [Compound 48a],,,< 4.30,< 4.30,

Structure (SMILES),"pIC50 [1, 2]",pIC50 (FL-SMARCA4; FL-SMARCA4 IC50),"pIC50 [1, 3]",pIC50 (FL-SMARCA4; [4]),also measured
Cn1cnc2cc(C(=O)Nc3cc(F)c(=O)n(CCF)c3)[nH]c2c1=O [Compound 48d],< 4.30,< 4.30,,,
CN1CC(C(=O)Nc2cc(F)c(=O)n(CCF)c2)CCC1=O (centres unmarked) [Compound 49a],,,< 4.30,< 4.30,
O=C(Nc1cc(F)c(=O)n(CC(F)F)c1)c1cc(C2COC2)c(Cl)s1 [Compound 49c],,,,,"pIC50 [1, 7]: 4.78; pIC50 (FL-SMARCA4; [8]): 4.77"
O=C(Nc1cc(F)c(=O)n(CC(F)F)c1)c1sc(Cl)c(Cl)c1O [Compound 49d],< 4.30,< 4.30,,,
CN1C(=O)CCC1C(=O)Nc1cc(F)c(=O)n(CCF)c1 (centres unmarked) [Compound 50a],,,< 4.30,< 4.30,
O=C(Nc1cc(F)c(=O)n(CC(F)CO)c1)c1cc(Cl)c(Cl)s1 (centres unmarked) [Compound 50c],,,,,"pIC50 [1, 7]: 5.58; pIC50 (FL-SMARCA4; [8]): 4.66"
CSc1cc(NC(=O)c2cc(F)c(Cl)s2)cn(CC(F)F)c1=O [Compound 50d],4.46,< 4.30,,,
CCn1cc(NC(=O)c2cc(I)cn2C)ccc1=O [Compound 51],,,,,"pIC50 [1, 5]: 4.33; pIC50 (FL-SMARCA4; [6]): < 4.30"
CN1CC(C(=O)Nc2cc(F)c(=O)n(CCF)c2)CC1=O (centres unmarked) [Compound 51a],,,< 4.30,< 4.30,
Cn1ccnc1-c1cc(NC(=O)c2sc(C(F)(F)F)cc2Cl)cn(CC(F)F)c1=O [Compound 51c],,,,,"pIC50 [1, 7]: < 4.30; pIC50 (FL-SMARCA4; [8]): < 4.30"
O=C(Nc1cc(F)c(=O)n(CC(F)F)c1)c1nc(Cl)c[nH]1 [Compound 51d],< 4.30,< 4.30,,,
CCn1cc(NC(=O)c2ccc(C)n2C(F)F)ccc1=O [Compound 52],,,,,"pIC50 [1, 5]: < 4.30; pIC50 (FL-SMARCA4; [6]): < 4.30"
O=C(Nc1cc(F)c(=O)n(CCF)c1)N1CCCC1 [Compound 52a],,,< 4.30,< 4.30,
CNCCn1cc(NC(=O)c2cc(F)c(Cl)s2)cc(F)c1=O [Compound 52c],,,,,"pIC50 [1, 7]: < 4.30; pIC50 (FL-SMARCA4; [8]): < 4.30"
O=C(Nc1cc(F)c(=O)n(CC(F)F)c1)c1cc(Cl)c(C#CCO)s1 [Compound 52d],4.47,< 4.30,,,
Cn1c(C(=O)Nc2ccc(=O)n(CC(F)(F)F)c2)cc(Cl)c1Cl [Compound 53],,,,,"pIC50 [1, 5]: 5.83; pIC50 (FL-SMARCA4; [6]): 4.78"
O=C(Nc1cc(F)c(=O)n(CCF)c1)N1CCn2ccnc2C1 [Compound 53a],,,< 4.30,< 4.30,
CNCCCn1cc(NC(=O)c2cc(F)c(Cl)s2)cc(F)c1=O [Compound 53c],,,,,"pIC50 [1, 7]: < 4.30; pIC50 (FL-SMARCA4; [8]): < 4.30"

# From patent US20220356174A1, “PYRIDIN-2-ONE COMPOUNDS USEFUL AS SMARCA2 ANTAGONISTS” (Epizyme, Inc., priority 2018, published 2022)
